Consider nine compounds from ChEMBL document CHEMBL4339246, “Iridal-Type Triterpenoids with a Cyclopentane Unit from the Rhizomes of Belamcanda chinensis” (J Nat Prod, 2019).

One assay deals with A549. Kind of assay: Cytotoxicity in human A549 cells assessed as reduction in cell viability incubated for 72 hrs by MTT assay. In kind it is functional, cell-based. To be noted: A549, 72 h. A general note: Tetrazolium assays rely on reduction of a dye to a coloured formazan, in cell work by metabolically active cells.
The next assay deals with HCT-116. The assay is described as follows: Cytotoxicity in human HCT116 cells assessed as reduction in cell viability incubated for 72 hrs by MTT assay. To be noted: HCT-116, 72 h. In kind it is functional, cell-based.
The next assay relates to HepG2. The assay is described as follows: Cytotoxicity in human HepG2 cells assessed as reduction in cell viability incubated for 72 hrs by MTT assay. The assay is classed as functional, cell-based. To be noted: HepG2, 72 h.
The subject of a further assay is BV-2. The assay is described as follows: Antiinflammatory activity in mouse BV2 cells assessed as inhibition of LPS-induced nitric oxide production pretreated for 24 hrs followed by LPS-stimulation for 24 hrs by Griess assay. In kind it is functional, cell-based. Background: Nitrite, measured by Griess reagent, commonly stands in for NO production.
The test system of another assay is BGC-823. The assay is described as follows: Cytotoxicity in human BGC823 cells assessed as reduction in cell viability incubated for 72 hrs by MTT assay. The assay is classed as functional, cell-based. To be noted: BGC-823, 72 h.
Assay [1] addresses T1, Tyrosine-protein phosphatase non-receptor type 1 (Homo sapiens) (UniProt P18031).
T1 sequence (whole entry): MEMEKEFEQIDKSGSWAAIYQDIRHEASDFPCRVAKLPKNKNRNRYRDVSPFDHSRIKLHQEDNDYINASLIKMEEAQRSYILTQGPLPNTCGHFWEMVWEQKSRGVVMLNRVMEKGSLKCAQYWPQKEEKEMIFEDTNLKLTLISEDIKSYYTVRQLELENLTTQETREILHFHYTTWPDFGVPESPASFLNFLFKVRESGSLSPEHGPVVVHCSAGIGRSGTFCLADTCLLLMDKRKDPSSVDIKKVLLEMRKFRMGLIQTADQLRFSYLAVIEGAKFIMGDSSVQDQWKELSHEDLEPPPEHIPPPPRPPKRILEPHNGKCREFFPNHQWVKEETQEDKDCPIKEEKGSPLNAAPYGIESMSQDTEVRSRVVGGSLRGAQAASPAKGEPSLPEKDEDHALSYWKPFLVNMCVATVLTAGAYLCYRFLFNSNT
Kind of assay: Inhibition of recombinant human GST-tagged PTP1B expressed in expressed in Escherichia coli BL21 cells at 10 uM pre-incubated for 5 mins before pNPP substrate addition and further incubated for 30 mins relative to untreated control.

The subject of another assay is MCF7. The assay is described as follows: Cytotoxicity in human MCF7 cells assessed as reduction in cell viability incubated for 72 hrs by MTT assay. The assay is classed as functional, cell-based. As to conditions: MCF7, 72 h.

Usually IC50 stands for the concentration needed to halve the response being measured. In general, inhibition refers to the drop in the measured response relative to a control, in per cent.

Turning to `C=C(C)[C@H]1CC[C@@](C)(O)[C@@H]1/C=C/C(C)=C/[C@@H]1C[C@@]23[C@H](OCCC[C@@H]2/C(=C(\C)C=O)CC[C@]3(C)O)O1`, the IC50 with A549, in the assay on HCT-116, with HepG2, with BV-2, in the assay with BGC-823 and with MCF7 was more than 10 µM throughout. In assay [1], the inhibition was 26.4%.

Take `C=C(C)[C@@H]1CC[C@](C)(O)[C@H]1/C=C/C(C)=C/[C@@H]1C[C@@]23[C@H](OCCC[C@@H]2/C(=C(/C)C=O)CC[C@]3(C)O)O1`: the IC50 with A549, in the assay on HCT-116, with HepG2, in the assay with BV-2, in the assay on BGC-823 and in the assay on MCF7 was more than 10 µM in each case. The inhibition in assay [1] was found to be 16.5%.

For the compound `C=C(C)[C@@H]1CC[C@](C)(O)[C@H]1/C=C/C(C)=C/[C@@H]1C[C@@]2([C@H](OC)O1)[C@H](CCCO)/C(=C(/C)C=O)CC[C@]2(C)O`, the IC50 in the assay on A549, with HCT-116, with HepG2, with BV-2, in the assay with BGC-823 and in the assay with MCF7 was more than 10 µM throughout. The inhibition in assay [1] was found to be 23.5%.

In the case of `C=C(C)[C@H]1CC[C@@](C)(O)[C@@H]1/C=C/C(C)=C/[C@@H]1C[C@@]23[C@H](OCCC[C@@H]2/C(=C(/C)C=O)CC[C@]3(C)O)O1`, the half-maximal inhibitory concentration (IC50) in the assay with A549, in the assay on HCT-116, in the assay on HepG2, with BV-2, in the assay on BGC-823 and in the assay on MCF7 was more than 10 µM each time. For the same compound, the inhibition in assay [1] was 24.8%.

`C=C(C)[C@H]1CC[C@@](C)(O)[C@@H]1/C=C/C(C)=C/[C@@H]1C[C@@]2([C@H](OC)O1)[C@H](CCCO)/C(=C(\C)C=O)CC[C@]2(C)O`: the concentration for half-maximal inhibition (IC50) with A549, in the assay on HCT-116, in the assay with HepG2, in the assay with BV-2, in the assay with BGC-823 and with MCF7 was more than 10 µM each time. Further, the inhibition in assay [1] is 15.2%.

As for `C=C(C)[C@H]1CC[C@@](C)(O)[C@@H]1/C=C/C(C)=C/[C@@H]1C[C@@]2([C@H](OCC)O1)[C@H](CCCO)/C(=C(\C)C=O)CC[C@]2(C)O`, the 50% inhibitory concentration (IC50) with A549, with HCT-116, with HepG2, with BV-2, with BGC-823 and with MCF7 was more than 10 µM each time. Moreover, the inhibition in assay [1] was 32.9%.

Regarding `C=C(C)[C@H]1CC[C@@](C)(O)[C@@H]1/C=C/C(C)=C/[C@@H]1C[C@@]2([C@H](OC)O1)[C@H](CCCO)/C(=C(/C)C=O)CC[C@]2(C)O`, the IC50 in the assay on A549, in the assay on HCT-116, in the assay on HepG2, in the assay with BV-2, with BGC-823 and in the assay on MCF7 was more than 10 µM in each case. The inhibition in assay [1] was -0.5%.

For the compound `C=C(C)[C@@H]1CC[C@](C)(O)[C@H]1/C=C/C(C)=C/[C@@H]1C[C@@]23[C@H](OCCC[C@@H]2/C(=C(\C)C=O)CC[C@]3(C)O)O1`, the concentration for half-maximal inhibition (IC50) with A549, with HCT-116, in the assay on HepG2, in the assay on BV-2, with BGC-823 and with MCF7 was more than 10 µM throughout. The inhibition in assay [1] came to 33.4%.

`C=C(C)[C@@H]1CC[C@](C)(O)[C@H]1/C=C/C(C)=C/[C@@H]1C[C@@]2([C@H](OC)O1)[C@H](CCCO)/C(=C(\C)C=O)CC[C@]2(C)O`: the IC50 in the assay with A549, in the assay on HCT-116, in the assay with HepG2, with BV-2, with BGC-823 and with MCF7 was more than 10 µM each time. For the same compound, in assay [1], the inhibition was -1.8%.
